From patent US20120138290A1, “METHODS TO STIMULATE BIOGENIC METHANE PRODUCTION FROM HYDROCARBON-BEARING FORMATIONS” (SYNTHETIC GENOMICS, INC., priority 2010, published 2012)
Values joined by “and” are separate entries in the source; they are usually repeats but may differ in a detail not shown here. Identical values can stand only once. Like-named read-outs stand apart in the source and are kept apart here.

Tested on: functional microbial subcommunity (inoculum 2L-245 from upflow reactor)
Assay: Stimulation of methane production: batch cultures with additive/stimulant, with or without coal, headspace methane by gas chromatography
Format: cell-based
Protocol: The availability of an inoculum of a functional microbial subcommunity capable of producing methane from coal in vitro prompted laboratory experiments where various stimulants were tested for their effect on methane production. […] The experiments were conducted at three different levels of additives (0.5×, 1× and 2×): additives (stimulants) were added in the following three concentrations. […] DMY media: DM media composition in milli-Q water is made as described above with the addition of 0.5 g/L yeast extract. DMSC media: DM media in milli-Q water is made as described above with the addition of 100 g/L sterile, anaerobic, sub-bituminous coal from the San Juan Basin. DMSCY media: DM media in milli-Q water is made as described above with the addition of 100 g/L sterile, anaerobic, sub-bituminous coal from the San Juan Basin and 0.5 g/L yeast extract. The coal used in these experiments originated from the San Juan Basin (BHP Billiton, Tex.). […] Each stimulant was tested in the presence or absence of coal. The experiments were conducted at three different concentrations of additives (0.5× (low), 1× (medium), and 2× (high)) as described above. Each sample type was conducted in 4 replicates. […] Control sample types were media alone, media plus coal, media plus yeast extract and media plus coal and yeast extract. At each time point, headspace measurements were taken using gas chromatography (microGC […], Agilent Technologies, Inc.). […] Each experiment was performed in quadruplicate. Methane at time 0 was assumed to be 0%.

[1] = DMSCY (coal), 5 mM NH4Cl, week 1
[2] = DMSCY (coal), 5 mM NH4Cl, week 3
[3] = DMSCY (coal), 5 mM NH4Cl, week 5
[4] = DMSCY (coal), 10 mM NH4Cl, week 1
[5] = DMSCY (coal), 10 mM NH4Cl, week 3
[6] = DMSCY (coal), 10 mM NH4Cl, week 5
[7] = DMSCY (coal), 20 mM NH4Cl, week 1
[8] = DMSCY (coal), 20 mM NH4Cl, week 5
[9] = DMY (no coal), 5 mM NH4Cl, week 1
[10] = DMY (no coal), 5 mM NH4Cl, week 3
[11] = DMY (no coal), 5 mM NH4Cl, week 5
[12] = DMY (no coal), 10 mM NH4Cl, week 1
[13] = DMY (no coal), 20 mM NH4Cl, week 1
[14] = DMY (no coal), 20 mM NH4Cl, week 3
[15] = DMY (no coal), 20 mM NH4Cl, week 5
[16] = DMSCY (coal), 5.0 μM MnCl2, week 3
[17] = DMSCY (coal), 5.0 μM MnCl2, week 5
[18] = DMSCY (coal), 10 μM MnCl2, week 1
[19] = DMSCY (coal), 10 μM MnCl2, week 3
[20] = DMSCY (coal), 10 μM MnCl2, week 5
[21] = DMY (no coal), 5.0 μM MnCl2, week 1
[22] = DMY (no coal), 5.0 μM MnCl2, week 3
[23] = DMY (no coal), 5.0 μM MnCl2, week 5
[24] = DMY (no coal), 10 μM MnCl2, week 1
[25] = DMY (no coal), 10 μM MnCl2, week 3
[26] = DMY (no coal), 10 μM MnCl2, week 5
[27] = DMSCY (coal), 2.0 mM KCl, week 1
[28] = DMSCY (coal), 2.0 mM KCl, week 3
[29] = DMSCY (coal), 2.0 mM KCl, week 5
[30] = DMSCY (coal), 4.0 mM KCl, week 1
[31] = DMSCY (coal), 4.0 mM KCl, week 3
[32] = DMSCY (coal), 4.0 mM KCl, week 5
[33] = DMSCY (coal), 8.0 mM KCl, week 1
[34] = DMSCY (coal), 8.0 mM KCl, week 3
[35] = DMSCY (coal), 8.0 mM KCl, week 5
[36] = DMY (no coal), 2.0 mM KCl, week 1
[37] = DMY (no coal), 2.0 mM KCl, week 3
[38] = DMY (no coal), 2.0 mM KCl, week 5
[39] = DMY (no coal), 4.0 mM KCl, week 1
[40] = DMY (no coal), 4.0 mM KCl, week 3
[41] = DMY (no coal), 4.0 mM KCl, week 5
[42] = DMY (no coal), 8.0 mM KCl, week 1
[43] = DMY (no coal), 8.0 mM KCl, week 3
[44] = DMY (no coal), 8.0 mM KCl, week 5

Compound: Cl.N [NH4Cl, ammonium chloride]
- methane production (Average) [1]: 0.31
- methane production (RepA-Rep D) [1]: 0.35 and 0.27 and 0.31 and 0.30
- methane production (Average) [2]: 1.11
- methane production (RepA-Rep D) [2]: 1.24 and 1.03 and 1.13
- methane production (Average) [3]: 1.50
- methane production (RepA-Rep D) [3]: 1.67 and 1.41 and 1.48 and 1.43
- methane production (Average) [4]: 0.25
- methane production (RepA-Rep D) [4]: 0.25 and 0.22 and 0.28
- methane production (Average) [5]: 1.30
- methane production (RepA-Rep D) [5]: 1.22 and 1.43 and 1.41 and 1.14
- methane production (Average) [6]: 2.22
- methane production (RepA-Rep D) [6]: 1.98 and 2.70 and 2.67 and 1.54
- methane production (Average) [7]: 0.22
- methane production (RepA-Rep D) [7]: 0.24 and 0.22 and 0.21
- methane production (Average) (DMSCY (coal), 20 mM NH4Cl, week 3): 1.18
- methane production (Average) [8]: 1.46
- methane production (RepA-Rep D) [8]: 1.63 and 1.48 and 1.37 and 1.36
- methane production (Average) [9]: 0.26
- methane production (RepA-Rep D) [9]: 0.26 and 0.27
- methane production (Average) [10]: 0.71
- methane production (RepA-Rep D) [10]: 0.74 and 0.68 and 0.67
- methane production (Average) [11]: 0.66
- methane production (RepA-Rep D) [11]: 0.69 and 0.65 and 0.62
- methane production (Average) [12]: 0.20
- methane production (RepA-Rep D) [12]: 0.22 and 0.21 and 0.15
- methane production (Average) (DMY (no coal), 10 mM NH4Cl, week 3): 0.57
- methane production (Average) (DMY (no coal), 10 mM NH4Cl, week 5): 0.58
- methane production (Average) [13]: 0.22
- methane production (RepA-Rep D) [13]: 0.23 and 0.22 and 0.21
- methane production (Average) [14]: 0.77
- methane production (RepA-Rep D) [14]: 0.80 and 0.78 and 0.76
- methane production (Average) [15]: 0.78
- methane production (RepA-Rep D) [15]: 0.80 and 0.79 and 0.76 and 0.77
- effect on the production of methane (intermediate concentration of the stimulant (FIGS. 1A, 1B, 2A)): statistically significant positive effect
- dependence of methane production on coal (with or without coal): only observed in presence of coal

Compound: O=S([O-])([O-])=S.[Na+].[Na+] [Na2S2O3, sodium thiosulfate]
- dependence of methane production on coal: only observed in the presence of coal
- effect on the production of methane: statistically significant positive effect

Compound: manganese chloride [MnCl2]
- methane production (Average) (DMSCY (coal), 5.0 μM MnCl2, week 1): 0.44
- methane production (Average) [16]: 1.56
- methane production (RepA-Rep D) [16]: 1.51 and 1.55 and 1.53 and 1.64
- methane production (Average) [17]: 1.82
- methane production (RepA-Rep D) [17]: 1.94 and 1.81 and 1.70 and 1.85
- methane production (Average) [18]: 0.42
- methane production (RepA-Rep D) [18]: 0.44 and 0.41 and 0.43
- methane production (Average) [19]: 1.46
- methane production (RepA-Rep D) [19]: 1.45 and 1.49 and 1.43 and 1.48
- methane production (Average) [20]: 1.72
- methane production (RepA-Rep D) [20]: 1.63 and 1.82 and 1.71 and 1.70
- methane production (Average) [21]: 0.34
- methane production (RepA-Rep D) [21]: 0.34 and 0.33 and 0.36
- methane production (Average) [22]: 0.92
- methane production (RepA-Rep D) [22]: 0.92 and 0.90 and 0.94
- methane production (Average) [23]: 0.87
- methane production (RepA-Rep D) [23]: 0.89 and 0.86 and 0.85 and 0.88
- methane production (Average) [24]: 0.36
- methane production (RepA-Rep D) [24]: 0.39 and 0.38 and 0.35
- methane production (Average) [25]: 1.02
- methane production (RepA-Rep D) [25]: 1.00 and 1.05 and 1.04 and 1.01
- methane production (Average) [26]: 0.97
- methane production (RepA-Rep D) [26]: 0.89 and 1.03 and 0.96 and 1.01

Compound: [Cl-].[K+] [KCl, potassium chloride]
- methane production (Average) [27]: 0.34
- methane production (RepA-Rep D) [27]: 0.35 and 0.30 and 0.32 and 0.39
- methane production (Average) [28]: 1.14
- methane production (RepA-Rep D) [28]: 1.12 and 1.25 and 1.04 and 1.16
- methane production (Average) [29]: 1.39
- methane production (RepA-Rep D) [29]: 1.32 and 1.49 and 1.30 and 1.47
- methane production (Average) [30]: 0.4
- methane production (RepA-Rep D) [30]: 0.44 and 0.43 and 0.46
- methane production (Average) [31]: 1.50
- methane production (RepA-Rep D) [31]: 1.35 and 1.46 and 1.60 and 1.57
- methane production (Average) [32]: 1.69
- methane production (RepA-Rep D) [32]: 1.59 and 1.87 and 1.70
- methane production (Average) [33]: 0.3936
- methane production (RepA-Rep D) [33]: 0.3871 and 0.3364 and 0.4219 and 0.429
- methane production (Average) [34]: 1.327
- methane production (RepA-Rep D) [34]: 1.346 and 1.301 and 1.36 and 1.304
- methane production (Average) [35]: 1.562
- methane production (RepA-Rep D) [35]: 1.564 and 1.478 and 1.557 and 1.649
- methane production (Average) [36]: 0.30
- methane production (RepA-Rep D) [36]: 0.29 and 0.30 and 0.32
- methane production (Average) [37]: 0.81
- methane production (RepA-Rep D) [37]: 0.99 and 0.79 and 0.78 and 0.70
- methane production (Average) [38]: 0.77
- methane production (RepA-Rep D) [38]: 0.78 and 0.75 and 0.79
- methane production (Average) [39]: 0.23
- methane production (RepA-Rep D) [39]: 0.23 and 0.22 and 0.24
- methane production (Average) [40]: 0.26
- methane production (RepA-Rep D) [40]: 0.24 and 0.26 and 0.29
- methane production (Average) [41]: 0.29
- methane production (RepA-Rep D) [41]: 0.23 and 0.26 and 0.40
- methane production (Average) [42]: 0.2015
- methane production (RepA-Rep D) [42]: 0.2005 and 0.2037 and 0.195 and 0.2068
- methane production (Average) [43]: 0.2178
- methane production (RepA-Rep D) [43]: 0.2211 and 0.2119 and 0.2206 and 0.2177
- methane production (Average) [44]: 0.2151
- methane production (RepA-Rep D) [44]: 0.2177 and 0.2082 and 0.2231 and 0.2112
- effect on methanogenesis (absence of coal (DMY), >2 mM KCl): greatly decreased methanogenesis
- trend in methane production (week 5, KCl-containing samples): decreasing trend
